Experimental data taken from ChEMBL document CHEMBL1201862, “PubChem BioAssay data set” (2004).
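Tested at 5 concentrations; 48 h exposure; 96-well plates; endpoints linearly interpolated, else capped at highest concentration. GI50: concentration for 50% inhibition of growth.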 The source made the active and inactive calls. Cut-off read from the data, not from the text of the source: active = GI50 up to about 1.1 µM and inactive = higher.

Assays:
Test in all cases: growth of human tumour cells (NCI), 48 h
SF-268 = system: SF-268
SF-295 = system: SF-295
SK-OV-3 = system: SK-OV-3
NCI-H23 = system: NCI-H23
RXF 393 = system: RXF 393
SK-MEL-5 = system: SK-MEL-5
A498 = system: A498
Malme-3M = system: Malme-3M
LOX IMVI = system: LOX IMVI
TK-10 = system: TK-10
HT-29 = system: HT-29
OVCAR-8 = system: OVCAR-8
MDA-N = system: MDA-N
SK-MEL-2 = system: SK-MEL-2
MDA-MB-435 = system: MDA-MB-435
COLO 205 = system: COLO 205
SF-539 = system: SF-539
KM12 = system: KM12
HCC 2998 = system: HCC 2998

Measured: GI50

CCOC(=O)C(=[N+]=[N-])C(=O)CSC#N
inactive: SF-268 > 100 µM | SF-295 > 100 µM | SK-OV-3 > 100 µM | NCI-H23 84.7 µM | RXF 393 > 100 µM | SK-MEL-5 35.5 µM | A498 > 100 µM | Malme-3M 55 µM | LOX IMVI 21.7 µM | TK-10 94.8 µM | HT-29 39.3 µM | OVCAR-8 46 µM | MDA-N 36 µM | SK-MEL-2 > 100 µM | MDA-MB-435 22.6 µM | COLO 205 > 100 µM | SF-539 21.3 µM | KM12 > 100 µM

CC(C)(C)c1cc(CC2C(=O)c3ccccc3C2=O)cc(C(C)(C)C)c1O
inactive: SF-268 3.44 µM | SF-295 3.24 µM | SK-OV-3 2.44 µM | NCI-H23 4.22 µM | SK-MEL-5 2.7 µM | A498 13.3 µM | LOX IMVI 3.81 µM | TK-10 5.57 µM | HT-29 3.13 µM | OVCAR-8 3.05 µM | MDA-N 7.5 µM | SK-MEL-2 3.2 µM | MDA-MB-435 3.78 µM | COLO 205 3.6 µM | SF-539 3.65 µM | KM12 3.51 µM

CC(NC(=O)C(N)CC(=O)O)NC(=O)C1CCC1 (centres undefined)
inactive: SF-268 > 100 µM | SK-OV-3 28.2 µM | NCI-H23 > 100 µM | RXF 393 > 100 µM | SK-MEL-5 > 100 µM | A498 > 100 µM | Malme-3M > 100 µM | LOX IMVI > 100 µM | TK-10 > 100 µM | HT-29 > 100 µM | OVCAR-8 > 100 µM | MDA-N > 100 µM | SK-MEL-2 > 100 µM | MDA-MB-435 > 100 µM | COLO 205 > 100 µM | SF-539 > 100 µM | KM12 > 100 µM

O=C1CC2C(=O)C1C(C(=O)O)C2C(=O)O (centres undefined)
inactive: SF-268 > 100 µM | SF-295 > 100 µM | SK-OV-3 > 100 µM | NCI-H23 > 100 µM | RXF 393 > 100 µM | SK-MEL-5 > 100 µM | A498 > 100 µM | Malme-3M > 100 µM | LOX IMVI > 100 µM | TK-10 > 100 µM | HT-29 > 100 µM | OVCAR-8 > 100 µM | MDA-N > 100 µM | SK-MEL-2 > 100 µM | MDA-MB-435 > 100 µM | COLO 205 > 100 µM | SF-539 > 100 µM | KM12 > 100 µM

CCOC(=O)[C@@]12C[C@](/C=C/OC)(O[Si](C)(C)C)[C@@]13c1cc(OC)c(OC)cc1CCN3C(=O)C2=O
inactive: SF-268 > 100 µM | SF-295 > 100 µM | SK-OV-3 > 100 µM | NCI-H23 > 100 µM | RXF 393 > 100 µM | SK-MEL-5 > 100 µM | A498 > 100 µM | Malme-3M > 100 µM | LOX IMVI > 100 µM | TK-10 > 100 µM | HT-29 > 100 µM | OVCAR-8 > 100 µM | MDA-N > 100 µM | SK-MEL-2 > 100 µM | MDA-MB-435 > 100 µM | COLO 205 > 100 µM | SF-539 > 100 µM | KM12 > 100 µM

COC(=O)c1c(O)ccc2c1c1c(n2Cc2cc(OC)cc(OC)c2)C(=O)c2ccccc2C1
inactive: SF-268 31.1 µM | SF-295 52.6 µM | SK-OV-3 29 µM | NCI-H23 58.1 µM | RXF 393 19.7 µM | SK-MEL-5 34.3 µM | A498 92.3 µM | Malme-3M 68.5 µM | LOX IMVI 33.1 µM | TK-10 52 µM | HT-29 11.7 µM | OVCAR-8 43.3 µM | MDA-N 10.8 µM | SK-MEL-2 50.6 µM | MDA-MB-435 10.9 µM | COLO 205 13.2 µM | SF-539 50.6 µM | KM12 43.3 µM

COC(=O)c1ccccc1CC1Cc2ccc3c(c2C1=O)CCC3 (centres undefined)
inactive: SF-268 > 100 µM | SF-295 57.1 µM | SK-OV-3 > 100 µM | NCI-H23 39.6 µM | HCC 2998 28.2 µM | RXF 393 35.4 µM | SK-MEL-5 23 µM | Malme-3M 28.8 µM | LOX IMVI 29.5 µM | TK-10 > 100 µM | HT-29 27.9 µM | OVCAR-8 49.5 µM | MDA-N 33.5 µM | SK-MEL-2 43.9 µM | MDA-MB-435 24.9 µM | COLO 205 29.9 µM | SF-539 > 100 µM | KM12 64.9 µM

CC1=NN(C(=O)CC(=O)Nc2ccccc2Cl)C(=O)C1/N=N\c1ccc(S(=O)(=O)c2ccc(/N=N/C3C(=O)N(C(=O)CC(=O)Nc4ccccc4Cl)N=C3C)cc2)cc1 (centres undefined)
inactive: SF-268 > 100 µM | SF-295 > 100 µM | SK-OV-3 > 100 µM | NCI-H23 > 100 µM | HCC 2998 > 100 µM | RXF 393 > 100 µM | SK-MEL-5 > 100 µM | Malme-3M > 100 µM | LOX IMVI 54.1 µM | TK-10 > 100 µM | HT-29 > 100 µM | OVCAR-8 > 100 µM | MDA-N > 100 µM | SK-MEL-2 > 100 µM | MDA-MB-435 > 100 µM | COLO 205 > 100 µM | SF-539 > 100 µM | KM12 > 100 µM

CC(C)OP(=O)(CCCCCCCCC/C=C/c1ccc2c(c1)OCCOCCOCCOCCO2)OC(C)C
inactive: SF-268 3.8 µM | SF-295 3.08 µM | SK-OV-3 3.19 µM | NCI-H23 2.85 µM | HCC 2998 4.04 µM | RXF 393 2.7 µM | SK-MEL-5 2.74 µM | Malme-3M 3.73 µM | LOX IMVI 2.16 µM | TK-10 9.29 µM | HT-29 3.05 µM | OVCAR-8 3.15 µM | MDA-N 3.4 µM | SK-MEL-2 2.96 µM | MDA-MB-435 3.87 µM | COLO 205 1.99 µM | SF-539 2.62 µM | KM12 2.8 µM

COC(=O)C1=C(O)C(C(=O)OC)[C@@]2(O)[C@@H](C(=O)OC)C(c3ccc(OC(=O)/C(=C/c4ccccc4)c4ccccc4)cc3)C[C@@H]1[C@@H]2C(=O)OC (some centres undefined)
inactive: SF-268 47.3 µM | SF-295 38.1 µM | SK-OV-3 > 100 µM | NCI-H23 > 100 µM | RXF 393 9.71 µM | SK-MEL-5 26.8 µM | A498 40.8 µM | Malme-3M > 100 µM | LOX IMVI 4.71 µM | TK-10 13.2 µM | HT-29 25.4 µM | OVCAR-8 14.1 µM | MDA-N 6.35 µM | SK-MEL-2 14.9 µM | MDA-MB-435 10.5 µM | COLO 205 40 µM | SF-539 2.46 µM | KM12 27.9 µM

COc1ccc(N/N=C/C2=CC(C)(C)C(C#N)(C#N)C(O)=C2C#N)cc1
inactive: SF-268 41 µM | SF-295 36.6 µM | NCI-H23 35.9 µM | RXF 393 36.6 µM | SK-MEL-5 69.7 µM | A498 37.9 µM | Malme-3M 29.4 µM | LOX IMVI 31.4 µM | TK-10 > 100 µM | HT-29 43.1 µM | OVCAR-8 28.7 µM | MDA-N 54.5 µM | SK-MEL-2 49.2 µM | MDA-MB-435 65.3 µM | COLO 205 22.5 µM | SF-539 26.1 µM | KM12 32.5 µM
